Target: T1, mouse Fpr3 (Fpr-rs1) (Mus musculus, UniProt O08790)
T1 construct: expressed in transfected cells; host or cells: HEK293T (DSMZ # ACC-635), transient transfection with jetPEI
T1 sequence (O08790 1-351): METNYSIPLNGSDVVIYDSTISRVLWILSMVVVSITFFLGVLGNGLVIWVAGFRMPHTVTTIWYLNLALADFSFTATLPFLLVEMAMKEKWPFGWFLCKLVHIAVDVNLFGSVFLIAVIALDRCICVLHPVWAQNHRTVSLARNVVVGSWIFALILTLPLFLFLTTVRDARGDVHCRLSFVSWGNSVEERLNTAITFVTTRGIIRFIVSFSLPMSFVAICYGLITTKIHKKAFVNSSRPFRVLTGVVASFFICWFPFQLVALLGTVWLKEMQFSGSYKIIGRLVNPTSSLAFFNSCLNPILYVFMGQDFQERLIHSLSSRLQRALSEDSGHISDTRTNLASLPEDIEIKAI
Test: Heterologous expression / high-throughput Ca2+ imaging agonist screen and sequence selectivity of Fpr3 (Fig. 1a, 2c-e, 2g, 2i)
Assay type: cell-based
Conditions: mean of n = 3 experiments in triplicate (n = 5 for f-MKKFRW), Fpr3 + Gα16 HEK293T, Fluo-4/AM, FLIPR, buffer C1 pH 7.2, mock 0.059-0.060
Method: An Fpr3 gene subcloned from genomic DNA of C57BL/6J mice into pcDNA3.1 (Invitrogen) was used in heterologous experiments[21],[80]. HEK293T (DSMZ # ACC-635) cells were seeded at 20–30% confluence on poly-D-lysine-coated (10 µg/ml in PBS) black 96-well µCLEAR-Plates (Greiner Bio-One). Cells were transfected 24 h later using jetPEI™ (Polyplus-transfection SA) according to the manufacturer’s protocol for 96-well transfections. For Ca^2+ imaging experiments, 0.125 µg of DNA plasmid encoding Fpr3 were cotransfected with equal amounts of a plasmid encoding Gα16, a promiscuous G protein α-subunit. Ca^2+ signals to agonist stimulation were recorded 48 h post transfection using the Ca^2+ indicator dye Fluo-4/AM (Molecular Probes) and a fluorescence imaging plate reader (FLIPR) system (Molecular Devices). Cotransfection of a plasmid encoding Gα16 with an empty vector used to subclone Fpr3 gave no agonist-evoked Ca^2+ responses.
We used custom-made peptides with a length of 6–21 amino acids to screen for agonists. Sequences of fMet peptides were designed according to motifs present at the N-termini of 15,125 specific bacterial proteins as annotated in UniProt. Peptides were chemically synthesised, purified, and verified by mass spectroscopy (MALDI-TOF) by commercial suppliers. Purity of all peptides was >95%. Source, sequence and purity of each peptide are listed in Supplementary Data 1. Lyophilised peptides were routinely dissolved in the Ca^2+ imaging assay buffer C1 (130 mM NaCl, 10 mM HEPES, 5 mM KCl, 2 mM CaCl2, 5 mM glucose, pH 7.2) as 0.2–1 mM stock solutions and kept in small aliquots at −20 °C until use. […] The sequences of these peptides exist in proteins from the following bacterial strains[21]: Psychromonas ingrahamii that belongs to a marine ice water microbial community, Desulfotomaculum reducens that is found in deep freshwater lakes, and Pseudomonas grimontii, a plant pathogen. As mice are unlikely to encounter these strains in their natural habitat, these findings are probably not of biological relevance.

Substance | Ca2+ response, mean (3 µM) | Ca2+ response, mean (30 µM)
f-MAMKKL [synthesized fMet peptide] | 0.058 ∆F/F | 0.059 ∆F/F
f-MAQDIISTI [synthesized fMet peptide] | 0.079 ∆F/F | 0.075 ∆F/F
f-MAYPFQ [synthesized fMet peptide] | 0.059 ∆F/F | 0.061 ∆F/F
f-MEFVAK [synthesized fMet peptide] | 0.051 ∆F/F | 0.076 ∆F/F
f-MEFVAKLFK [synthesized fMet peptide] | 0.071 ∆F/F | 0.062 ∆F/F
f-MFIYYCK [synthesized fMet peptide] | 0.053 ∆F/F | 0.042 ∆F/F
f-MINKKI [synthesized fMet peptide] | 0.058 ∆F/F | 0.045 ∆F/F
f-MKFCTA [synthesized fMet peptide] | 0.034 ∆F/F | 0.080 ∆F/F
f-MKKFLL [synthesized fMet peptide] | 0.052 ∆F/F | 0.050 ∆F/F
f-MKKFNI [synthesized fMet peptide] | 0.053 ∆F/F | 0.044 ∆F/F
f-MKKFYS [synthesized fMet peptide] | 0.058 ∆F/F | 0.056 ∆F/F
f-MKKHRW [synthesized fMet peptide] | 0.061 ∆F/F | 0.054 ∆F/F
f-MKKIML [synthesized fMet peptide] | 0.050 ∆F/F | 0.055 ∆F/F
f-MKKISKFLP [synthesized fMet peptide] | 0.055 ∆F/F | 0.072 ∆F/F
f-MKKLLNKIV [synthesized fMet peptide] | 0.056 ∆F/F | 0.054 ∆F/F
f-MKKNLV [synthesized fMet peptide] | 0.052 ∆F/F | 0.053 ∆F/F
f-MKKTLSLKN [synthesized fMet peptide] | 0.068 ∆F/F | 0.058 ∆F/F
f-MKKWRW [synthesized fMet peptide] | 0.056 ∆F/F | 0.063 ∆F/F
f-MKKYKRLLL [synthesized fMet peptide] | 0.074 ∆F/F | 0.065 ∆F/F

Substance | Ca2+ response, mean (3 µM) | Ca2+ response, mean (30 µM)
f-MKNFKG [synthesized fMet peptide, bacterial signal peptide fragment] | 0.065 ∆F/F | 0.052 ∆F/F
f-MKTSIR [synthesized fMet peptide] | 0.055 ∆F/F | 0.049 ∆F/F
f-MLFKYL [synthesized fMet peptide] | 0.053 ∆F/F | 0.056 ∆F/F
f-MLFKYS [synthesized fMet peptide] | 0.054 ∆F/F | 0.048 ∆F/F
f-MLKIIL [synthesized fMet peptide] | 0.057 ∆F/F | 0.057 ∆F/F
f-MLNKKKRGN [synthesized fMet peptide] | 0.056 ∆F/F | 0.058 ∆F/F
f-MMKMEG [synthesized fMet peptide] | 0.048 ∆F/F | 0.040 ∆F/F
f-MNIFTT [synthesized fMet peptide] | 0.059 ∆F/F | 0.065 ∆F/F
f-MNKKLL [f-MNKLL, synthesized fMet peptide] | 0.038 ∆F/F | 0.039 ∆F/F
f-MNPITL [synthesized fMet peptide] | 0.053 ∆F/F | 0.062 ∆F/F
f-MPKLNR [synthesized fMet peptide] | 0.048 ∆F/F | 0.033 ∆F/F
f-MPQLDT [synthesized fMet peptide] | 0.060 ∆F/F | 0.058 ∆F/F
f-MPSTFF [synthesized fMet peptide] | 0.063 ∆F/F | 0.065 ∆F/F
f-MTHQTH [synthesized fMet peptide] | 0.064 ∆F/F | 0.077 ∆F/F
f-MTNKIS [synthesized fMet peptide] | 0.052 ∆F/F | 0.049 ∆F/F
f-MTNMRK [synthesized fMet peptide] | 0.089 ∆F/F | 0.060 ∆F/F
f-MVKIIF [synthesized fMet peptide] | 0.045 ∆F/F | 0.054 ∆F/F
f-MVMKFK [synthesized fMet peptide] | 0.053 ∆F/F | 0.050 ∆F/F
f-MVPISI [synthesized fMet peptide] | 0.048 ∆F/F | 0.044 ∆F/F
